According to patent US10167262B2, “Herbicidal substituted 3-arylpyrazoles” (FMC CORPORATION, priority 2014, dated 2019):

Columns and labels:
Assay type in all cases: in vivo
[1] = tested on: surinam grass (Brachiaria decumbens); assay: Test C postemergence greenhouse test, plant response rating 0-100; details: for Plant response rating, Surinam Grass: 250 g ai/ha, scale 0 to 100
In short: (§1)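 Visual rating vs. controls, 0 (no effect) to 100 (complete control), 13–15 d after postemergence treatment. Potted plants, 1- to 4-leaf stage (2–18 cm), greenhouse-held.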

[2] = tested on: deadnettle (henbit deadnettle, Lamium amplexicaule); assay: as above; details: for Plant response rating, Deadnettle: 250 g ai/ha, scale 0 to 100
In short: as §1

[3] = tested on: downy bromegrass (Bromus tectorum); assay: as above; details: for Plant response rating, Bromegrass, Downy: 250 g ai/ha, scale 0 to 100
In short: as §1

[4] = tested on: goosegrass (Eleusine indica); assay: as above; details: for Plant response rating, Goosegrass: 250 g ai/ha, scale 0 to 100
In short: as §1

[5] = tested on: canarygrass (Phalaris minor); assay: as above; details: for Plant response rating, Canarygrass: 250 g ai/ha, scale 0 to 100
In short: as §1

[6] = tested on: woolly cupgrass (Eriochloa villosa); assay: as above; details: for Plant response rating, Cupgrass, Woolly: 250 g ai/ha, scale 0 to 100
In short: as §1

[7] = tested on: bermudagrass (Cynodon dactylon); assay: as above; details: for Plant response rating, Bermudagrass: 250 g ai/ha, scale 0 to 100
In short: as §1

[8] = tested on: cocklebur (common cocklebur, Xanthium strumarium); assay: as above; details: for Plant response rating, Cocklebur: 250 g ai/ha, scale 0 to 100
In short: as §1

[9] = tested on: green foxtail (Setaria viridis); assay: as above; details: for Plant response rating, Foxtail, Green: 250 g ai/ha, scale 0 to 100
In short: as §1

[10] = tested on: sedge, umbrella (small-flower umbrella sedge, Cyperus difformis); assay: Test B flooded paddy test, plant response rating 0-100; details: Flood, 250 g ai/ha; scale 0 to 100 (0 no effect, 100 complete control); 13 to 15 days
In short: (§2)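 Test compounds are applied straight into paddy water held 3 cm above the soil surface, with that flood maintained for the whole test. After 13 to 15 days in the greenhouse, each species is scored visually relative to controls.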

[11] = tested on: rice (Oryza sativa); assay: as above; details: Flood, 250 g ai/ha; scale 0 to 100 (0 no effect, 100 complete control); 13 to 15 days
In short: as §2

[12] = tested on: barnyardgrass (Echinochloa crus-galli); assay: as above; details: Flood, 250 g ai/ha; scale 0 to 100 (0 no effect, 100 complete control); 13 to 15 days
In short: as §2

[13] = tested on: ducksalad (Heteranthera limosa); assay: as above; details: Flood, 250 g ai/ha; scale 0 to 100 (0 no effect, 100 complete control); 13 to 15 days
In short: as §2

## CCn1cc(C(=O)c2ccccc2)c(-c2cc(Br)cc(Br)c2)n1 [Compound 38]
[1]; 62 g ai/ha
  Plant response rating (0 to 100), Surinam Grass: 0
[1]; 125 g ai/ha
  Plant response rating (0 to 100), Surinam Grass: 0
[1]
  Plant response rating, Surinam Grass: 0
[2]; 31 g ai/ha
  Plant response rating (0 to 100), Deadnettle: 0
[2]; 62 g ai/ha
  Plant response rating (0 to 100), Deadnettle: 0
[2]; 125 g ai/ha
  Plant response rating (0 to 100), Deadnettle: 0
[2]
  Plant response rating, Deadnettle: 5
[3]; 31 g ai/ha
  Plant response rating (0 to 100), Bromegrass, Downy: 0
[3]; 62 g ai/ha
  Plant response rating (0 to 100), Bromegrass, Downy: 0
[3]; 125 g ai/ha
  Plant response rating (0 to 100), Bromegrass, Downy: 0
[3]
  Plant response rating, Bromegrass, Downy: 0
[4]; 31 g ai/ha
  Plant response rating (0 to 100), Goosegrass: 0
[4]; 62 g ai/ha
  Plant response rating (0 to 100), Goosegrass: 0
[4]; 125 g ai/ha
  Plant response rating (0 to 100), Goosegrass: 0
[4]
  Plant response rating, Goosegrass: 0
[5]; 31 g ai/ha
  Plant response rating (0 to 100), Canarygrass: 0
[5]; 62 g ai/ha
  Plant response rating (0 to 100), Canarygrass: 0
[5]; 125 g ai/ha
  Plant response rating (0 to 100), Canarygrass: 0
[5]
  Plant response rating, Canarygrass: 5
[6]; 31 g ai/ha
  Plant response rating (0 to 100), Cupgrass, Woolly: 0
[6]; 62 g ai/ha
  Plant response rating (0 to 100), Cupgrass, Woolly: 0
[6]; 125 g ai/ha
  Plant response rating (0 to 100), Cupgrass, Woolly: 0
[6]
  Plant response rating, Cupgrass, Woolly: 0
[7]; 31 g ai/ha
  Plant response rating (0 to 100), Bermudagrass: 0
[7]; 62 g ai/ha
  Plant response rating (0 to 100), Bermudagrass: 0
[7]; 125 g ai/ha
  Plant response rating (0 to 100), Bermudagrass: 0
[7]
  Plant response rating, Bermudagrass: 0
[8]; 31 g ai/ha
  Plant response rating (0 to 100), Cocklebur: 5
[8]; 62 g ai/ha
  Plant response rating (0 to 100), Cocklebur: 10
[8]; 125 g ai/ha
  Plant response rating (0 to 100), Cocklebur: 15
[8]
  Plant response rating, Cocklebur: 15
[9]; 31 g ai/ha
  Plant response rating (0 to 100), Foxtail, Green: 0
[9]; 62 g ai/ha
  Plant response rating (0 to 100), Foxtail, Green: 0
[9]; 125 g ai/ha
  Plant response rating (0 to 100), Foxtail, Green: 0
[9]
  Plant response rating, Foxtail, Green: 5
[10]
  Plant response rating, Sedge, Umbrella: 0
[11]
  Plant response rating, Rice: 0
[12]
  Plant response rating, Barnyardgrass: 0
[13]
  Plant response rating, Ducksalad: 0

## CC(C)n1cc(C(=O)c2ccccc2)c(-c2cc(Cl)cc(Cl)c2)n1 [Compound 44]
[1]; 62 g ai/ha
  Plant response rating (0 to 100), Surinam Grass: 0
[1]; 125 g ai/ha
  Plant response rating (0 to 100), Surinam Grass: 0
[1]
  Plant response rating, Surinam Grass: 0
[2]; 31 g ai/ha
  Plant response rating (0 to 100), Deadnettle: 0
[2]; 62 g ai/ha
  Plant response rating (0 to 100), Deadnettle: 0
[2]; 125 g ai/ha
  Plant response rating (0 to 100), Deadnettle: 0
[2]
  Plant response rating, Deadnettle: 0
[3]; 31 g ai/ha
  Plant response rating (0 to 100), Bromegrass, Downy: 0
[3]; 62 g ai/ha
  Plant response rating (0 to 100), Bromegrass, Downy: 0
[3]; 125 g ai/ha
  Plant response rating (0 to 100), Bromegrass, Downy: 0
[3]
  Plant response rating, Bromegrass, Downy: 0
[4]; 31 g ai/ha
  Plant response rating (0 to 100), Goosegrass: 0
[4]; 62 g ai/ha
  Plant response rating (0 to 100), Goosegrass: 0
[4]; 125 g ai/ha
  Plant response rating (0 to 100), Goosegrass: 0
[4]
  Plant response rating, Goosegrass: 0
[5]; 31 g ai/ha
  Plant response rating (0 to 100), Canarygrass: 0
[5]; 62 g ai/ha
  Plant response rating (0 to 100), Canarygrass: 0
[5]; 125 g ai/ha
  Plant response rating (0 to 100), Canarygrass: 0
[5]
  Plant response rating, Canarygrass: 0
[6]; 31 g ai/ha
  Plant response rating (0 to 100), Cupgrass, Woolly: 0
[6]; 62 g ai/ha
  Plant response rating (0 to 100), Cupgrass, Woolly: 5
[6]; 125 g ai/ha
  Plant response rating (0 to 100), Cupgrass, Woolly: 5
[6]
  Plant response rating, Cupgrass, Woolly: 5
[7]; 31 g ai/ha
  Plant response rating (0 to 100), Bermudagrass: 0
[7]; 62 g ai/ha
  Plant response rating (0 to 100), Bermudagrass: 0
[7]; 125 g ai/ha
  Plant response rating (0 to 100), Bermudagrass: 0
[7]
  Plant response rating, Bermudagrass: 0
[8]; 31 g ai/ha
  Plant response rating (0 to 100), Cocklebur: 0
[8]; 62 g ai/ha
  Plant response rating (0 to 100), Cocklebur: 0
[8]; 125 g ai/ha
  Plant response rating (0 to 100), Cocklebur: 10
[8]
  Plant response rating, Cocklebur: 30
[9]; 31 g ai/ha
  Plant response rating (0 to 100), Foxtail, Green: 0
[9]; 62 g ai/ha
  Plant response rating (0 to 100), Foxtail, Green: 0
[9]; 125 g ai/ha
  Plant response rating (0 to 100), Foxtail, Green: 0
[9]
  Plant response rating, Foxtail, Green: 0
[10]
  Plant response rating, Sedge, Umbrella: 0
[11]
  Plant response rating, Rice: 0
[12]
  Plant response rating, Barnyardgrass: 0
[13]
  Plant response rating, Ducksalad: 0
